How the values were obtained:
[1] = tested on: laser-induced choroidal neovascularization (CNV); assay: Laser-induced choroidal neovascularization (CNV) in mouse; format: in vivo; settings: 2 μl intravitreously day 1 and day 4: 100 ng/μl moVEGFR2_MOe13, 500 ng/μl anti-mouse VEGF-A IgG, 2 ng/μl SU1498, CNV volume day 7
Procedure: It was also examined whether moVEGFR2_MOe13 inhibits laser-induced choroidal neovascularization (CNV). Each morpholino or DPBS was injected intravitreously on day 1 and day 4 after laser photocoagulation, and laser CNV volumes were examined on day 7. […] Vessel endothelial cells were stained with Alexa fluor488 conjugated isolectin GS-IB4. […] After photocoagulation, on day 1 and day 4, 2 ul of 100 ng/μl STD_MO, 500 ng/μl Goat IgG (AB-108-C, R&D Systems, Minneapolis, Minn.), 100 ng/μl moVEGFR2_MOe13, 500 ng/μl Goat Anti-mouse VEGF-A IgG (AF-493-NA, R&D Systems, Minneapolis, Minn.) or 2 ng/μl SU1498 (572888, EMD chemicals, Gibbstown, N.J.) was injected intravitreously. On day 7, CNV volumes were measured by confocal microscope. n=14-20 for each group. Risk factors (p-value) were calculated by two-tail student's t-test (*: p<0.05, **p<0.01). Error bar is ±s.e.m.
(§1) Each morpholino oligomer was purchased from Gene Tools (Philomath, Oreg.). The sequences of each morpholino oligomer and primers for PCR are listed in supplemental Table. HUVECs (Lonza, Walkersville, Md.) were cultured in EBM with EGM SingleQuot Kit supplements and growth factors according to the manufacturer's instructions (Lonza, Walkersville, Md.). MS-1 cells, a mouse endothelial cell line (ATCC, Manassas, Va.) were cultured in 5% FBS/DMEM. Morpholino oligomers were delivered to the nucleus by nucleofection (Amaxa, Gaithersburg, Md.) with a Basic Nucleofector Kit for Primary Mammalian Endothelial Cells (Amaxa, Gaithersburg, Md.) using program A-034 for HUVEC and MS-1 cells. For each nucleofection, 1×10^6 cells were used and plated on a 6-well plate. After 2 days of culture, cells were trypsinized and total RNA was extracted using a RNeasy mini kit (Qiagen, Valencia, Calif.) with DNaseI treatment. Detection of mbVEGFR2 was achieved by flow cytometry. […] The cells were washed three times and fluorescence was detected by a FACScan Analyzer (BD Biosciences, San Jose, Calif.). […]

mbVEGFR2 mRNA = assay: Real-time PCR of mbVEGFR2 mRNA after morpholino transfection of HUVECs; format: cell-based, human; settings: GAPDH as internal control, compared with DPBS transfected HUVECs
From the text: (§2) In addition, two polyadenylation sites (AAUAAA) are found in intron13 (FIG. 1A). […] FIG. 1(a) illustrates a schematic design of anti-sense morpholino oligomers. FIGS. 1(b, c) show the results of mbVEGFR2 and sVEGFR2 mRNA expression quantified by real-time PCR after morpholino transfection. All results are normalized by GAPDH expression and compared with DPBS transfected HUVECs as 1. p: risk factor by two-tail student's t-test. *: p<0.05, **p<0.01, ***p<0.001 compared with DPBS transfected HUVECs; n=6 for all groups; Error bar is ±s.e.m. It is thus concluded that human polyadenylation of sVEGFR2 mRNA occurs in intron13, and thus the present disclosure examines whether disruption of splicing between exon13-exon14 upregulates sVEGFR2.
(§3) It was discovered that VEGFR2_MOe13 downregulates mbVEGFR2 mRNA by 40% (p<0.05), while VEGFR2_MOi13 upregulates mbVEGFR2 mRNA by 2.5-fold (p<0.01) compared with DPBS transfected HUVECs.
(§4) Each morpholino oligomer was purchased from Gene Tools (Philomath, Oreg.). […] The cells were washed three times and fluorescence was detected by a FACScan Analyzer (BD Biosciences, San Jose, Calif.). […]
(§5) cDNAs were synthesized from 400 ng total RNA using Omniscript RT kit (Qiagen, Valencia, Calif.) and Oligo-dT primer(dT20) according to the manufacturer's instructions. Real-time PCR was performed using QuantiTect SYBR Green PCR Kit (Qiagen, Valencia, Calif.) and 1 μl of cDNA. […]

sVEGFR2 mRNA [2] = assay: Real-time PCR of sVEGFR2 mRNA after morpholino transfection of HUVECs; format: cell-based, human; settings: GAPDH as internal control, compared with DPBS transfected HUVECs, p<0.001
From the text: as §2, §3, §4, §5

sVEGFR2 mRNA [3] = assay: RT-PCR analysis of sVEGFR2 mRNA from HUVECs two days after morpholino transfection; format: cell-based, human
Procedure: To limit the possibility of genomic contamination, VEGFR2exon10_F (designed in exon10) and VEGFR2_R (designed in intron13) were used for primers to detect sVEGFR2.
as §1

mbVEGFR2 protein [4] = assay: Flow cytometry analysis of mbVEGFR2 protein on cell surfaces of transfected HUVECs; format: cell-based, human; settings: flow cytometry three days after nucleofection, DPBS 83.3%
Procedure: (§6) Next, mbVEGFR2 protein expression by western blot was examined. VEGFR2_MOe13 or a combination of VEGFR2_MOe13 and VEGFR2_MOi13 reduced mbVEGFR2 protein expression compared to DPBS and STD_MO. […] (f) HUVECs stained with only secondary antibody were used as a negative control. […] To confirm sVEGFR2 protein expression, western blot from culture medium of morpholino transfected HUVECs was performed using an antibody recognizing the extracellular domains of VEGFR2 (FIG. 5). […] It is known that mbVEGFR2 can be glycosylated, thus increasing the molecular weight from 150 kD to 230 kD. In addition, sVEGFR2 has been detected at 160 kDa, although it has not reported whether this was derived from alternative polyadenylation or proteolytic cleavage from mbVEGFR2. Based on this information, it is likely that sVEGFR2 protein, upregulted following morpholino treatment, is glycosylated with an observed molecular weight of 150 kDa.
Each morpholino oligomer was purchased from Gene Tools (Philomath, Oreg.). The sequences of each morpholino oligomer and primers for PCR are listed in supplemental Table. HUVECs (Lonza, Walkersville, Md.) were cultured in EBM with EGM SingleQuot Kit supplements and growth factors according to the manufacturer's instructions (Lonza, Walkersville, Md.). […] The cells were washed three times and fluorescence was detected by a FACScan Analyzer (BD Biosciences, San Jose, Calif.). […]

sVEGFR2 protein = assay: Western blot of culture medium of morpholino transfected HUVECs against VEGFR2 extracellular domain; format: cell-based, human; settings: three days, antibody to VEGFR2 extracellular domains
Procedure: as §6
(§7) After nucleofection, cells were cultured in a 75 cm^2 flask for three days without changing the medium. After three days the media was collected and cell debris was removed by centrifugation. Trichloroacetic acid (20% (w/v), Fisher Scientific, Pittsburgh, Pa.) was added to concentrate the supernatant (final concentration of trichloroacetic acid was 10%). Cells were incubated in trichloroacetic acid for 30 minutes on ice and then centrifuged at ×12000 g 4° C. for 5 minutes. […]

sVEGFR2 mRNA [5] = assay: Long-range 3'RACE from morpholino transfected HUVECs; format: cell-based, human
Procedure: To determine the 3′UTR of sVEGFR2 mRNA induced by morpholinos, long-range 3′RACE was performed (FIG. 5C). A strong band (˜1600 bp) was detected from VEGFR2_MOe13 and the combination of VEGFR2_MOe13 and VEGFR2_MOi13 transfected HUVECs. Based on the sequence of this band, sVEGFR2 mRNA utilizes a polyadenylation site located in 1403-1408 nt range of intron13 (FIG. 6B). […] These sequence components are similar to typical polyadenylation signals, which contain a cleavage site 10-35 nt downstream of AAUAAA and a GU-rich region 14-70 nt downstream of AAUAAA. […] Corneal tissue is known to predominantly express sVEGFR2.
cDNA was synthesized from total RNA extracted from morpholino transfected HUVEC using a cloning_R1 (Table 1). PCR was performed using a LongRange PCR Kit (Qiagen, Valencia, Calif.). PCR conditions: 93° C. for 3 minutes, 35 cycles of 93° C. for 15 seconds, 55° C. for 30 seconds and 68° C. for 6 minutes using VEGFR2_F1 and cloning_R2. After 1% agarose gel electrophoresis, specific bands were excised and subjected to DNA sequencing. To determine endogenous 3′UTR of sVEGFR2 mRNA, total RNA extracted from one human cornea which was obtained from the Utah Lions Eye Bank. cDNA was synthesized with the same above method, and PCR was performed using cloning_F(1042-1061) which is designed in human VEGFR2 intron13 and cloning_R2.

mbVEGFR2 protein [6] = assay: Western blot for mbVEGFR2 from morpholino transfected HUVECs; format: cell-based, human; settings: compared to DPBS and STD_MO
Procedure: as §6, §7

Compound | suppression of CNV compared with anti-VEGF-A IgG and SU1498 (FIG. 9) [1] | upregulation of mbVEGFR2 mRNA (mbVEGFR2 mRNA; p<0.01) | increase of sVEGFR2 mRNA (sVEGFR2 mRNA [2]) | detection of sVEGFR2 mRNA by RT-PCR (sVEGFR2 mRNA [3]) | mbVEGFR2 positive cells (mbVEGFR2 protein [4]) | sVEGFR2 protein in culture medium by western blot (sVEGFR2 protein) | 3'RACE band (~1600 bp) corresponding to sVEGFR2 mRNA using the polyadenylation site in intron13 (sVEGFR2 mRNA [5]) | downregulation of mbVEGFR2 mRNA (mbVEGFR2 mRNA; p<0.05) | mbVEGFR2 protein expression by western blot (mbVEGFR2 protein [6])
CC(C)c1cc(/C=C(\C#N)C(=O)NCCCc2ccccc2)cc(C(C)C)c1O [SU1498, reference compound] | inhibitory effects | – | – | – | – | – | – | – | –
5′-CCACACGCTctagacacacaaaaag-3′ (antisense CCACACGCTCTAGACACACAAAAAG; all phosphorodiamidate morpholino (PMO)) [VEGFR2_MOi13, antisense morpholino oligomer corresponding to the junction of intron13-exon14 of human VEGFR2] | – | 2.5 fold | 4.4 fold | detected | 82.5% | could not detect | did not show a strong band | – | –
5′-gatccagaattgtctccctacCTAG-3′ (antisense GATCCAGAATTGTCTCCCTACCTAG; all phosphorodiamidate morpholino (PMO)) [VEGFR2_MOe13, antisense morpholino oligomer corresponding to the junction of exon13-intron13 of human VEGFR2] | – | – | 17 fold | detected | 40.7% | 150 kD bands were detected | strong band | 40% | reduced

Reference: US20170218375A1, “MORPHOLINOS, MORPHOLINO UPREGULATING, AND ASSOCIATED METHODS” (University of Utah Research Foundation, priority 2011, published 2017)
